Measurements published in ChEMBL document CHEMBL1201862, “PubChem BioAssay data set” (2004).
Activity calls are given as the source filed them.

Tests used:
Coagulation factor XII = target: T1, Coagulation factor XII (Homo sapiens, UniProt P00748); type: functional;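 note: activated factor XIIa alpha cleaving a fluorogenic AMC peptide substrate; inhibitor potency from loss of enzyme activity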
T1 sequence (P00748 whole entry): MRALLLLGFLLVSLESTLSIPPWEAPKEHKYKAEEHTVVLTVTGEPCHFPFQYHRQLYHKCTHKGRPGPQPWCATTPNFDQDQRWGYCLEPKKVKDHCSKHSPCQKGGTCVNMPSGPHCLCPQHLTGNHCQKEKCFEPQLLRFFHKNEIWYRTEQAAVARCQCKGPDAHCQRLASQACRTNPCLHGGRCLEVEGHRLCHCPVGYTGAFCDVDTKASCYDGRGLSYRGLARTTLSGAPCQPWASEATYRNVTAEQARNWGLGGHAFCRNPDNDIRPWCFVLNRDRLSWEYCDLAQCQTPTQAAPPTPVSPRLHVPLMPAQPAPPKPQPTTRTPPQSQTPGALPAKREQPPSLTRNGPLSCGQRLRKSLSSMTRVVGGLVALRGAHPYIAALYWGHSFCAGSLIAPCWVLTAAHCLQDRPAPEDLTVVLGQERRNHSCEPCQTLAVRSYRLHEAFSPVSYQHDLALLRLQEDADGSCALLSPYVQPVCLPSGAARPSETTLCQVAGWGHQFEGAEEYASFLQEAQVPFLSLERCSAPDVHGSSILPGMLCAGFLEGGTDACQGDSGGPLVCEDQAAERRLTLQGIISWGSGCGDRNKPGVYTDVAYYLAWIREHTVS

[1] = target: T2, Ubiquitin-conjugating enzyme E2 N (Homo sapiens, UniProt P61088); type: functional
T2 sequence (P61088 whole entry): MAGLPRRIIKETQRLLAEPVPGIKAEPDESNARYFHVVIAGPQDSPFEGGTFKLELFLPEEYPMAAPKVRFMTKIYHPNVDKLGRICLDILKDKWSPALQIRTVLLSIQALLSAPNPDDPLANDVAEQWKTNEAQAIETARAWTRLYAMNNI

Bcl-2-related protein A1 = target: T3, Bcl-2-related protein A1 (Mus musculus, UniProt Q07440); type: functional;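 note: confirmatory dose–response counterscreen on Bfl-1, used to check hits from a UBC13 polyubiquitin inhibitor campaign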
T3 sequence (Q07440 whole entry): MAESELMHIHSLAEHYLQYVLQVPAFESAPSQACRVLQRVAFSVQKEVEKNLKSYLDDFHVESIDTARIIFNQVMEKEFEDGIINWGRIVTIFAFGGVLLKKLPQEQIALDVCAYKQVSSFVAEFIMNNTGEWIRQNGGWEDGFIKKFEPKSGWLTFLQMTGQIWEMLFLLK

[2] = target: T2, Ubiquitin-conjugating enzyme E2 N; type: functional; remark: listed apart in the source
SUMO-activating enzyme = SUMO-activating enzyme (Homo sapiens, UniProt Q9UBT2); experiment: SUMOylation inhibitor hit validation, confirmation, SUMOylation inhibitor project, biochemical, AlphaScreen (AID 2018); type: functional
HEK293 [3] = experiment: cells; settings: Homo sapiens
HEK293 [4] = experiment: cells; settings: Homo sapiens; remark: listed apart in the source
[5] = inhibitors of intracellular T. cruzi replication, confirmation, NIH3T3 host cells, beta-gal luminescence (AID 2044); type: functional, cell-based;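 note: intracellular parasites grown in NIH/3T3 mouse fibroblasts as host cells; luminescent beta-galactosidase reporter signal from transgenic T. cruzi replicating inside host cells; inhibitors lower the luminescence signal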
[6] = A cytotoxicity screen of small molecule inhibitors of the PhoP region in Salmonella typhi identified in the primary screen. [Related pubchem assays: 1850, 1864, 1985 ]; type: functional
[7] = cytotoxicity toward NIH3T3 fibroblasts, dose response, counter-screen, cell-based, ATP luminescence, mouse fibroblasts (AID 2010); type: functional;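 note: cells exposed to compound for about 90 hours before reading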
[8] = Luminescence Cell-Based Dose Confirmation to Identify Activators of 5'UTR Stem-Loop Driven Alpha-Synuclein mRNA Translation in H4 Neuroglioblastoma Cells. [Related pubchem assays: 1829 (Project Summary), 1814 (Primary HTS)]; type: functional
[9] = Luminescence Cell-Based Dose Response HTS to Identify Activators of Luciferase Translation or Activity in H4 […] Cells. [Related pubchem assays: 1829 (Project Summary), 1814 (Primary HTS)]; type: functional
H4 = experiment: Luminescence Cell-Based Dose Response HTS to Identify Activators of 5'UTR Stem-Loop Driven Prion Protein mRNA Translation in H4 Neuroglioblastoma Cells. [Related pubchem assays: 1829 (Project Summary), 1814 (Primary HTS)]; type: functional; settings: Homo sapiens
[10] = Luminescence Cell-Based Dose Response to Identify Activators of Luciferase Translation or Activity in H4-C Neuroglioblastoma Cells. [Related pubchem assays: 1829 (Project Summary), 1814 (Primary HTS)]; type: functional
Estrogen receptor = target: T4, Estrogen receptor (Homo sapiens, UniProt P03372);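 note: potency for inhibiting coactivator peptide recruitment to the receptor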
T4 sequence (P03372 whole entry): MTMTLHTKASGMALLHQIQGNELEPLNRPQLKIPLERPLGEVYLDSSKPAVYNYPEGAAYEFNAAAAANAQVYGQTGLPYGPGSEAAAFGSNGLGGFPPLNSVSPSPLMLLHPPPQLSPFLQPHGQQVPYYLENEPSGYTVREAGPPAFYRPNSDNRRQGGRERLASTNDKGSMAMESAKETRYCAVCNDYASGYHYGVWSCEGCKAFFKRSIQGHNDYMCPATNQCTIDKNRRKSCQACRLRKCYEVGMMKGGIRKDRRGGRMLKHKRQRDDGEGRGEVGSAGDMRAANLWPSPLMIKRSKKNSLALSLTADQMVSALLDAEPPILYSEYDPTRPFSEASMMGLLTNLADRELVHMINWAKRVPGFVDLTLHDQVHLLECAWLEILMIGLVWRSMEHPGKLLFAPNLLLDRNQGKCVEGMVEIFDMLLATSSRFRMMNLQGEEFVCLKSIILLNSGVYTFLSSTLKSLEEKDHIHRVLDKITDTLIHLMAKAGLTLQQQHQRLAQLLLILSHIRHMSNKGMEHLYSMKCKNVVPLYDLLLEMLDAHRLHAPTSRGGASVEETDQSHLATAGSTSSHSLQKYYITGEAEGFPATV

[11] = Luminescence Cell-Based Dose Response to Identify Activators of 5'UTR Stem-Loop Driven Prion Protein mRNA Translation in H4-C Neuroglioblastoma Cells. [Related pubchem assays: 1829 (Project Summary), 1814 (Primary HTS)]; type: functional
Cytochrome P450 3A4 = Cytochrome P450 3A4 (Homo sapiens, UniProt P08684); settings: Potency;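 note: confirmatory qHTS run detecting inhibitors and substrates of CYP3A4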
[12] = HEp-2 cell cytotoxicity, dose response, cytotoxicity control for RSV inhibitor project, HTS (AID 2410); type: functional; settings: human respiratory syncytial virus
H9c2 = experiment: cells; type: functional, cell-based; settings: Rattus norvegicus, H9c2, Myocardium;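 note: confirmatory concentration-response retest of ultra-high-throughput screening hits for modulation of myocardial damage; cell death induced by hydrogen peroxide oxidative stress; compound pretreatment for 60 min then peroxide exposure for 2 h; potency is for protecting the cells against peroxide damage rather than for killing them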
[13] = Luminescence Cell-Based Dose Retest to Confirm Inhibitors of Cancer Stem Cells. [Related pubchem assays (depositor defined):AID2717, AID2721]; type: functional; settings: Homo sapiens
[14] = growth suppression of beta-catenin-knockout colon cells, dose response, cell-based, HCT116, human colon tumor (AID 1045); type: functional;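 note: HCT116 colon tumor cells with beta catenin knocked out; cells exposed to compound for 60 hours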
[15] = growth suppression of PTEN-null colon cells, dose response, cell-based, HCT116 PTEN knockout (AID 1047); type: functional;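 note: HCT116 colon tumor cells with PTEN knocked out; cells exposed to compound for 60 hours before readout; potency for loss of cell viability measured by luminescence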
[16] = target: Beta-2 adrenergic receptor (Homo sapiens, UniProt P07550); experiment: beta2AR agonists driving receptor internalization, dose response, cell-based, FAP fluorogen, flow cytometry, cherry pick 1 (AID 588763); type: functional
Trypsin = Trypsin (Sus scrofa, UniProt P00761); experiment: porcine trypsin inhibitors, dose response, selectivity assay for Rce1 protease inhibitor project, biochemical, quenched peptide fluorescence, cherry-pick (AID 488789)
[17] = A Cell Based Secondary Assay To Explore Cytotoxicity of Compounds that Sensitize Mycobacterium Tuberculosis to Beta-Lactam Antibiotics.; type: functional

Chain of SUMO-activating enzyme (Q9UBE0 whole entry): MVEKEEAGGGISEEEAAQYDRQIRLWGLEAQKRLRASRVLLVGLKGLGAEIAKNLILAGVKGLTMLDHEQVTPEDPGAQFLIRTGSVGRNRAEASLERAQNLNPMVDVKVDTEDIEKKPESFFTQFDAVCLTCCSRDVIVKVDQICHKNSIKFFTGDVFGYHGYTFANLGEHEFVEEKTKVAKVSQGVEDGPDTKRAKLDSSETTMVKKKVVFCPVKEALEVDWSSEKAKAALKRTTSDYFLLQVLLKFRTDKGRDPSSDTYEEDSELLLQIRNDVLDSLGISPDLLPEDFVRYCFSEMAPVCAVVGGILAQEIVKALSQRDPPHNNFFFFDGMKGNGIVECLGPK
Chain of SUMO-activating enzyme (Q9UBT2 whole entry): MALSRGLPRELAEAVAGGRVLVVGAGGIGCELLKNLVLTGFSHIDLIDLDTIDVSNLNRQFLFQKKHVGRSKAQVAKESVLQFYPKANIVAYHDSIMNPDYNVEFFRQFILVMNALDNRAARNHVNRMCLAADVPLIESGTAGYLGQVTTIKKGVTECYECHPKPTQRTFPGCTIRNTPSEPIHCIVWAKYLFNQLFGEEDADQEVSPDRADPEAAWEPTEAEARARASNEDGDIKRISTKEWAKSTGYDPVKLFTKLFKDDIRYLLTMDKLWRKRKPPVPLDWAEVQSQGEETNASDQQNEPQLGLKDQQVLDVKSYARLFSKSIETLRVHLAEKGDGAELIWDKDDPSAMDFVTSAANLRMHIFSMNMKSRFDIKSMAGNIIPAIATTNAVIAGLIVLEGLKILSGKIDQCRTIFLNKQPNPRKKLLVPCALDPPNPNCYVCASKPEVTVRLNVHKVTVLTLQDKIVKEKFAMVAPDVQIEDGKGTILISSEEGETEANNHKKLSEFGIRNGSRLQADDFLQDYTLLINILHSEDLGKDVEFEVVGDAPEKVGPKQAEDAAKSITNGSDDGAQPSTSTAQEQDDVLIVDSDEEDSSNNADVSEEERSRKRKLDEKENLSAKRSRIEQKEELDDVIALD
Chain of Cytochrome P450 3A4 (P08684 whole entry): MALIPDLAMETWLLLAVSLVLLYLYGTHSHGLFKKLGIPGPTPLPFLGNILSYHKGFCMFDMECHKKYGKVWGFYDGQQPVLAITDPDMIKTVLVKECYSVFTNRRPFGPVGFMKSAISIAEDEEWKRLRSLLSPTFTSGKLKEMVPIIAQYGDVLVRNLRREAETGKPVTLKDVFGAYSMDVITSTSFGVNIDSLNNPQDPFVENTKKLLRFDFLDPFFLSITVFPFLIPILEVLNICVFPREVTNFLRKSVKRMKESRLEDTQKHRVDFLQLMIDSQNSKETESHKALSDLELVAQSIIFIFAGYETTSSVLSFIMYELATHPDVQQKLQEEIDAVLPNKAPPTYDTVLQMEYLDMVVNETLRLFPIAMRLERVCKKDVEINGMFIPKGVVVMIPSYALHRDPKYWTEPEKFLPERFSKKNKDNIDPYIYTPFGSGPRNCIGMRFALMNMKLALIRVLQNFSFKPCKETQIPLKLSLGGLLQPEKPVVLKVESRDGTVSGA
Chain of Trypsin (P00761 whole entry): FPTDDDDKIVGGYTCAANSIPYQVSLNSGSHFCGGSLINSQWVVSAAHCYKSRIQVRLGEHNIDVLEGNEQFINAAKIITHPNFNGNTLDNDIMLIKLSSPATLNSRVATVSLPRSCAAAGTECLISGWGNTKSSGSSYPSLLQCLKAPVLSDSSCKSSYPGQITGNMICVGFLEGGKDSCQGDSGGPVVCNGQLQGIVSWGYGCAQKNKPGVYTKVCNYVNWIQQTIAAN
Chain of Beta-2 adrenergic receptor (P07550 whole entry): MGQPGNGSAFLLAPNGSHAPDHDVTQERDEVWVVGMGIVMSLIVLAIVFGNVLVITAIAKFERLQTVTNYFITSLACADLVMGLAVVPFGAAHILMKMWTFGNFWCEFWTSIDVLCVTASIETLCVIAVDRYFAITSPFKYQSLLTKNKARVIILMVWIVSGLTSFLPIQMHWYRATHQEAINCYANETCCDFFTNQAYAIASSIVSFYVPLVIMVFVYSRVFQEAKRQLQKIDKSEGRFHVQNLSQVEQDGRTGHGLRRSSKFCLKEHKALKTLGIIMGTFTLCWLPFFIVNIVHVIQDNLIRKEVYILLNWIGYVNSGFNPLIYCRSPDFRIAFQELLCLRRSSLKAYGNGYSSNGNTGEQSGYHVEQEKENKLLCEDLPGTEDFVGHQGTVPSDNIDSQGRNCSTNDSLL

Question: For `COC(=O)Cc1c(C)nc2nc(-c3ccc(C)cc3)nn2c1O`, which IC50 (Coagulation factor XII) is on record?
Answer: > 50 µM (inactive)

Question: Which IC50 [1] does the source give for `COc1ccnc2c1c(=O)n(Cc1ccc(Cl)cc1)c(=O)n2C` here?
Answer: 11.7 µM (active)

Question: What about the IC50 (Bcl-2-related protein A1) of the same compound?
Answer: 4.03 µM (active)

Question: What about the IC50 [2] of the same compound?
Answer: 8.22 µM (active)

Question: For `CCCCn1c(N)c(C(=O)OCCOC)c2nc3ccccc3nc21`, which IC50 (SUMO-activating enzyme) is on record?
Answer: 38 µM (active)

Question: Which results are given for `CCCNC(=O)c1ccccc1NC(=O)c1ccccc1N(C)S(=O)(=O)c1ccc(C)cc1`?
Answer: EC50 (HEK293 [3]): > 59.6 µM (inactive); EC50 (HEK293 [4]): > 59.6 µM (inactive)

Question: Which EC50 [5] does the source give for `COc1ccc(N(CCCN2C(=O)c3cccc4cccc(c34)C2=O)C(=O)c2cccnc2)cc1` here?
Answer: 0.666 µM (active)

Question: What about the EC50 [6] of the same compound?
Answer: > 50 µM (active)

Question: What about the EC50 [7] of the same compound?
Answer: > 60 µM (not active)

Question: For `CCn1cnc2cc(NCc3ccc(Br)cc3)ccc21`, which EC50 [6] is on record?
Answer: > 50 µM (active)

Question: Which EC50 [8] does the source give for `O=C(COC(=O)CC1CCCC1)Nc1cc2c(cc1Cl)C(=O)c1ccccc1C2=O` here?
Answer: 0.497 µM (active)

Question: What about the EC50 [9] of the same compound?
Answer: < 0.1 µM (inconclusive)

Question: What about the EC50 (H4) of the same compound?
Answer: 21.7 µM (active)

Question: And the EC50 [10]?
Answer: 0.438 µM (active)

Question: And the IC50 (Estrogen receptor)?
Answer: 22.3 µM (active)

Question: And the EC50 [11]?
Answer: 2.27 µM (active)

Question: With `C=C1CCC2C(CC2(C)C)C(=C)CC/C1=N/O` (centres undefined) [5-HYDROXYIMINOISOCARYOPHYLLENE] as the compound, how does the AC50 (Cytochrome P450 3A4) read?
Answer: 31.6 µM (inconclusive)

Question: For `CCOC(=O)c1cccc(Nc2nc(-c3cccnc3)nc3ccccc23)c1`, which IC50 [1] is on record?
Answer: 14.5 µM (active)

Question: What about the IC50 (Bcl-2-related protein A1) of the same compound?
Answer: > 20 µM (inactive)

Question: What about the IC50 [2] of the same compound?
Answer: 15.2 µM (active)

Question: And the CC50 [12]?
Answer: 14 µM (active)

Question: What about the IC50 (H9c2) of the same compound?
Answer: 24 µM (active)

Question: Which results are given for `C#CCOCCOCCOCCNc1nc(N2CCOCC2)nc(N2CCN(C(=O)[C@H](CCCCN)n3cc(CN)nn3)CC2)n1`?
Answer: IC50 [1]: 15.3 µM (active); IC50 (Bcl-2-related protein A1): > 20 µM (inactive); IC50 [2]: > 20 µM (inactive)

Question: For `O=C(c1ccc2c3c(cccc13)CC2)C1CCCN(Cc2ncc[nH]2)C1` (centres undefined), which EC50 [6] is on record?
Answer: > 50 µM (active)

Question: Which IC50 (Coagulation factor XII) does the source give for `Cc1ccc2cc(CN(C(=O)c3cccs3)c3ccccc3)c(O)nc2c1` here?
Answer: > 50 µM (inactive)

Question: Which AC50 (Cytochrome P450 3A4) does the source give for `COC(=O)N1[C@H](C)C=C[C@]1(Cc1ccccc1)C(=O)NCc1ccccn1` here?
Answer: 3.98 µM (inconclusive)

Question: Which IC50 [1] does the source give for `COc1cc(/C=N/NC(=O)CSCc2ccc([N+](=O)[O-])cc2)cc(OC)c1OC` here?
Answer: 4.56 µM (active)

Question: And the IC50 (Bcl-2-related protein A1)?
Answer: > 20 µM (inactive)

Question: And the IC50 [2]?
Answer: 7.06 µM (active)

Question: For `Cc1ccc(N(CC(O)CN2C(=O)NC(C)(C)C2=O)S(=O)(=O)c2ccc(C)cc2)cc1` (centres undefined), which IC50 (Coagulation factor XII) is on record?
Answer: > 50 µM (inactive)

Question: Which results are given for `CC1CCN(S(=O)(=O)c2ccc3c(c2)C(=NO)c2cc(S(=O)(=O)N4CCC(C)CC4)ccc2-3)CC1`?
Answer: EC50 (HEK293 [3]): > 59.6 µM (inactive); AC50 [13]: 0.584 µM (active); EC50 [14]: 0.265 µM (active); EC50 (HEK293 [4]): > 59.6 µM (inactive); EC50 [15]: 0.303 µM (active)

Question: For `COc1ccc(CSc2ccc(-c3nc4ccccn4c3NCc3ccccc3)cc2OC)cc1`, which EC50 [16] is on record?
Answer: 1.32 µM (active)

Question: What about the AC50 (Trypsin) of the same compound?
Answer: 4.45 µM (active)

Question: For `Cc1ccc(/C=N/NC(=O)c2cccc(S(=O)(=O)Nc3cccc(Cl)c3)c2)o1`, which IC50 (SUMO-activating enzyme) is on record?
Answer: 82.1 µM (active)

Question: Which CC50 [17] does the source give for `CCSc1nnc(NC(=O)C2Cc3ccccc3CN2C(=O)c2ccco2)s1` (centres undefined) here?
Answer: > 40 µM (active)

Question: And the IC50 (Estrogen receptor)?
Answer: 7.47 µM (active)

Question: With `O=C(/C=C/c1c(F)cccc1Cl)N1CCOCC1` as the compound, how does the EC50 [6] read?
Answer: > 50 µM (active)
